For data set [1] the following is noted: pH 2.7.
The test system of another data set is Phytophthora infestans. Format: in vivo. To be noted: tomato plants, spray, 500 ppm, grading 5 days after contamination.

Marks after values point to notes of the source that are not given here.

With `Cn1c(/C(=N\OCc2cccc(NC(=O)C3(c4ccccc4)CC3)n2)c2ccccc2)noc1=O` [Example 165], the LogP in data set [1] is 4.43 [a]. The molecule also came in with an Eff. % in the data set on Phytophthora infestans of 70%.
`Cc1ccoc1C(=O)Nc1cccc(CO/N=C(/c2ccccc2)c2noc(=O)n2C)n1` [Example 170]: in data set [1], the LogP was 3.71 [a]. The molecule also showed an Eff. % in the data set on Phytophthora infestans of 100%.
On the same counts, the results for `COc1ccccc1CCOC(=O)Nc1cccc(CO/N=C(/c2ccccc2)c2noc(=O)n2C)n1` [Example 175] are 4.31 [a] and 93%.
As for `CCCCC(=O)Nc1cccc(CO/N=C(/c2ccccc2)c2noc(=O)n2CC)n1` [Example 176], the LogP in data set [1] is 3.76 [a]. In the data set with Phytophthora infestans, this molecule registered an Eff. % of 100%.
Regarding `CC(C)C(=O)Nc1cccc(CO/N=C(/c2ccccc2)c2noc(=O)n2C)n1` [Example 177], in data set [1], the lipophilicity (LogP) was 3.11 [a]. Besides, the Eff. % in the data set on Phytophthora infestans is reported as 100%.
As to `Cn1c(/C(=N\OCc2cccc(NC(=O)c3ccccc3Cl)n2)c2ccccc2)noc1=O` [Example 178], in data set [1], the log partition coefficient (LogP) is 3.64 [a]. Moreover, the Eff. % in the data set with Phytophthora infestans is recorded as 99%.
Turning to `CC(C)CCOC(=O)Nc1cccc(CO/N=C(/c2ccccc2)c2noc(=O)n2C)n1` [Example 182], the lipophilicity (LogP) in data set [1] was 4.39 [a]. In the data set with Phytophthora infestans, the Eff. % was 100%.
Take `COc1ccccc1CCC(=O)Nc1cccc(CO/N=C(/c2ccccc2)c2noc(=O)n2C)n1` [Example 184]: the LogP in data set [1] is 3.87 [a]. This molecule gave an Eff. % in the data set on Phytophthora infestans of 99%.
In the case of `Cn1c(/C(=N\OCc2cccc(NC(=O)OCCc3ccccc3F)n2)c2ccccc2)noc1=O` [Example 186], in data set [1], the LogP was 4.21 [a]. Moreover, the Eff. % in the data set on Phytophthora infestans is listed as 83%.
For the molecule `Cn1c(/C(=N\OCc2cccc(NC(=O)c3ccc(Br)cc3)n2)c2ccccc2)noc1=O` [Example 187], the lipophilicity (LogP) in data set [1] was 4.14 [a]. Also, the Eff. % in the data set with Phytophthora infestans is reported as 80%.
In the case of `CSCCC(=O)Nc1cccc(CO/N=C(/c2ccccc2)c2noc(=O)n2C)n1` [Example 188], the LogP in data set [1] was 3.09 [a]. The molecule also had an Eff. % in the data set on Phytophthora infestans of 99%.
Consider `CCC(CC)COC(=O)Nc1cccc(CO/N=C(/c2ccccc2)c2noc(=O)n2C)n1` [Example 192], for which, in data set [1], the log partition coefficient (LogP) is 4.78 [a]. Besides, the Eff. % with Phytophthora infestans came out at 100%.
With `CCCCC(C)OC(=O)Nc1cccc(CO/N=C(/c2ccccc2)c2noc(=O)n2C)n1` (stereo not drawn) [Example 200], the LogP in data set [1] is 4.78 [a]. This molecule returned an Eff. % in the data set with Phytophthora infestans of 98%.
Take `CCn1c(/C(=N\OCc2cccc(NC(=O)OCc3ccccc3)n2)c2ccccc2)noc1=O` [Example 201]: the LogP in data set [1] is 4.24 [a]. The same molecule had an Eff. % with Phytophthora infestans of 100%.
For `Cn1c(/C(=N\OCc2cccc(NC(=O)c3cc(F)cc(F)c3)n2)c2ccccc2)noc1=O` [Example 202] the same measures were 3.92 [a] and 98%.
On the same counts, the results for `Cc1cccc(CCOC(=O)Nc2cccc(CO/N=C(/c3ccccc3)c3noc(=O)n3C)n2)c1` [Example 210] are 4.53 [a] and 75%.
`COC(C(=O)Nc1cccc(CO/N=C(/c2ccccc2)c2noc(=O)n2C)n1)c1ccccc1` (stereo not drawn) [Example 218]: the LogP in data set [1] was 3.85 [a]. In addition, the Eff. % in the data set with Phytophthora infestans is on record as 80%.
Turning to `COc1ccccc1OC(C)C(=O)Nc1nc(CO/N=C(/c2ccccc2)c2noc(=O)n2C)cs1` (stereo not drawn) [Example 219], the LogP in data set [1] is 3.89 [a]. In the data set with Phytophthora infestans, this molecule had an Eff. % of 85%.
For `CCC(C)(C)C(=O)Nc1cccc(CO/N=C(/c2ccccc2)c2noc(=O)n2C)n1` [Example 221], the lipophilicity (LogP) in data set [1] was 3.8 [a]. In the data set with Phytophthora infestans, this molecule returned an Eff. % of 100%.
As to `CCCCCOC(=O)Nc1cccc(CO/N=C(/c2cccc(C)c2)c2noc(=O)n2C)n1` [Example 224], the log partition coefficient (LogP) in data set [1] is 4.78 [a]. Also, the Eff. % in the data set on Phytophthora infestans stood at 93%.
On to `CC(C)COC(=O)Nc1cccc(CO/N=C(/c2ccccc2)c2noc(=O)n2C)n1` [Example 225], for which the LogP in data set [1] is 4.01 [a]. For the same molecule, the Eff. % in the data set with Phytophthora infestans was found to be 99%.
Turning to `Cc1ccc(OCC(=O)Nc2nc(CO/N=C(/c3ccccc3)c3noc(=O)n3C)cs2)cc1` [Example 229], in data set [1], the LogP was 3.8 [a]. Moreover, the Eff. % in the data set with Phytophthora infestans worked out at 100%.
As to `CC(Oc1ccccc1)C(=O)Nc1cccc(CO/N=C(/c2ccccc2)c2noc(=O)n2C)n1` (stereo not drawn) [Example 232], the log partition coefficient (LogP) in data set [1] was 3.96 [a]. The Eff. % in the data set on Phytophthora infestans was found to be 100%.
For the molecule `CC(C)=CCCC(C)CC(=O)Nc1cccc(CO/N=C(/c2ccccc2)c2noc(=O)n2C)n1` (stereo not drawn) [Example 235], the LogP in data set [1] was 4.88 [a]. For the same molecule, the Eff. % in the data set on Phytophthora infestans is 100%.
For `CC(CC1CCCCC1)Nc1cccc(CO/N=C(/c2ccccc2)c2noc(=O)n2C)n1` (stereo not drawn) [Example 236] the same measures were 5.14 [a] and 100%.
With `Cn1c(/C(=N\OCc2cccc(NC(=O)CC(F)(F)F)n2)c2ccccc2)noc1=O` [Example 237], in data set [1], the lipophilicity (LogP) is 3.19 [a]. In addition, in the data set with Phytophthora infestans, the Eff. % was found to be 97%.
For `Cn1c(/C(=N\OCc2csc(NC(=O)OCc3ccccc3)n2)c2ccccc2)noc1=O` [Example 239], the LogP in data set [1] is 3.73 [a]. In the data set with Phytophthora infestans, this molecule came in with an Eff. % of 84%.
As to `Cn1c(/C(=N\OCc2cccc(NC(=O)c3ccccc3Br)n2)c2ccccc2)noc1=O` [Example 243], in data set [1], the LogP is 3.67 [a]. The molecule further displayed an Eff. % in the data set with Phytophthora infestans of 99%.
For the molecule `Cn1c(C(=NOCc2cccc(NC(=O)OC(C)(C)C)n2)c2ccc(F)cc2)noc1=O` [Example 246], the LogP in data set [1] was 4.06 [a]. In addition, in the data set with Phytophthora infestans, the Eff. % is 100%.
Regarding `Cn1c(C(=NOCc2cccc(NC(=O)CCCC(C)(C)C)n2)c2ccccc2)noc1=O` [Example 247], the LogP in data set [1] was 4.53 [a]. This molecule also registered an Eff. % with Phytophthora infestans of 99%.
On the same counts, the results for `Cn1c(C(=NOCc2csc(NC(=O)c3ccc(F)cc3)n2)c2ccccc2)noc1=O` [Example 251] are 3.55 [a] and 98%.
On to `Cn1c(C(=NOCc2csc(NC(=O)c3ccccc3)n2)c2ccccc2)noc1=O` [Example 257], for which the LogP in data set [1] was 3.44 [a]. In the data set on Phytophthora infestans, this molecule had an Eff. % of 100%.
Consider `Cn1c(C(=NOCc2cccc(N(C(=O)OC(C)(C)C)C(=O)OC(C)(C)C)n2)c2cccc(F)c2)noc1=O` [Example 261], for which the LogP in data set [1] was 4.51 [a]. Moreover, the Eff. % in the data set on Phytophthora infestans stood at 100%.
`Cn1c(C(=NOCc2csc(NC(=O)c3cc(F)cc(F)c3)n2)c2ccccc2)noc1=O` [Example 263]: in data set [1], the LogP is 3.8 [a]. The Eff. % in the data set with Phytophthora infestans was found to be 78%.
Take `Cn1c(C(=NOCc2cccc(NC(=O)Cc3cccs3)n2)c2ccccc2)noc1=O` [Example 264]: the LogP in data set [1] is 3.42 [a]. In addition, in the data set with Phytophthora infestans, the Eff. % amounted to 94%.
As to `CCCC(=O)Nc1cccc(CON=C(c2ccccc2)c2noc(=O)n2C)n1` [Example 266], the LogP in data set [1] is 3.13 [a]. Besides, the Eff. % with Phytophthora infestans was determined as 100%.
With `Cn1c(C(=NOCc2cccc(NC(=O)CCCC3CCCCC3)n2)c2ccccc2)noc1=O` [Example 267], in data set [1], the log partition coefficient (LogP) is 5.14 [a]. In the data set on Phytophthora infestans, this molecule displayed an Eff. % of 97%.
As to `CCCC(=O)Nc1nc(CON=C(c2ccccc2)c2noc(=O)n2C)cs1` [Example 271], the LogP in data set [1] is 3.02 [a]. In addition, in the data set on Phytophthora infestans, the Eff. % amounted to 80%.
As to `Cc1cccc(C(=NOCc2cccc(NC(=O)OCCc3ccccc3)n2)c2noc(=O)n2C)c1` [Example 272], the LogP in data set [1] is 4.49 [a]. For the same molecule, in the data set with Phytophthora infestans, the Eff. % came out at 88%.

As a reminder, the LogP is the decadic logarithm of the partition coefficient of the neutral form, usually between octanol and water.

Source of the values: patent publication US9090600B2, “Fungicidal 4-substituted-3-{phenyl[(heterocyclylmethoxy)imino]methyl}-1,2,4-oxadizol-5(4H)-one derivatives” (BAYER INTELLECTUAL PROPERTY GMBH, priority 2011, dated 2015).
